According to paper PMC6829886, “Inhibition of Non-Small Cell Lung Cancer Cells by Oxy210, an Oxysterol-Derivative that Antagonizes TGFβ and Hedgehog Signaling” (Cells, 2019):

Legend:
[1] = test system: TGFβ induced activity of SBE-luciferase reporter; experiment: SBE-luciferase (Smad response-element) reporter assay in NIH3T3-E1 cells; type: cell-based, mouse; conditions: 48 hrs
Protocol: NIH3T3-E1 cells cultured in 24 well-plates at 90% confluence were transiently transfected with 0.1 μg of Smad response-element reporter (SBE-Luciferase) plasmid (Qiagen), or with 0.1 μg of Gli response-element reporter (pGL3b-8xGli-Luciferase) plasmid, and 10 ng of pSV40-Renilla-Luciferase plasmid (Promega, Madison, WI, USA) with or without co-transfection with 10ng of Gli1 overexpression vector, pSRα-Gli1 using a Lipofectamine LTX Plus transfection reagent, as previously described [23]. […] 6 hrs after transfection, cells were treated with test agents for 72 h. […] Twenty-four hours after transfection, cells were treated with test agents for 20 h. Then the firefly and Renilla luciferase activities were measured using a dual luciferase kit (Promega) and a GloMax-96 Microplate Luminometer (Promega) or a plate reader-SpectraMax iD3 (Molecular Devices, San Jose, CA, USA). The firefly luciferase activities were normalized to the Renilla luciferase activities.
(d) NIH3T3 cells cultured in 24 well-plates were transfected with a Smad response element reporter (SBE-Luciferase) plasmid and a pTK-Renilla-Luciferase plasmid. 6 hrs after transfection, cells were treated with the test agents as indicated for 48 hrs. Luciferase activity was measured and normalized to the Renilla luciferase activity.

[2] = test system: GLI1, GLI2 mRNA in H2030 NSCLC cells; experiment: GLI mRNA expression in H2030 cells (Q-RT-PCR); type: cell-based, human; conditions: 5 μM, 72 h
Protocol: Total RNA was extracted with the RNeasy Plus Mini Kit from Qiagen (Hilden, Germany) according to the manufacturer’s instructions. One microgram of RNA was reverse-transcribed using an iScript Reverse Transcription Supermix from Bio-Rad Laboratories (Hercules, CA, USA) to make single-stranded cDNA. The cDNAs were then mixed with Qi SYBR Green Supermix (Bio-Rad) for quantitative RT-PCR assay using a Bio-Rad I-cycler IQ quantitative thermocycler. All PCR samples were prepared in triplicate wells in a 96-well plate. After 40 cycles of PCR, melt curves were examined in order to ensure primer specificity. Fold changes in gene expression were calculated using the ΔΔCt method. […]
Figure 6 Inhibition of Glis and SHH expression in Non-Small Cell Lung Cancer (NSCLC) cells. A549 (a) and H2030 (b) cells were treated with Oxy210 in RPMI 1640 containing 5% FBS for 72 h, then RNA was extracted and analyzed by Q-RT-PCR for the expression of the indicated genes and normalized to GAPDH expression. […] After 48 h, RNA was extracted and analyzed by Q-RT-PCR for the expression of Gli1 and Shh and normalized to GAPDH expression. […]

[3] = test system: A549 cells; experiment: TGFβ-induced EMT in A549 cells (morphology, Q-RT-PCR); type: cell-based, human
Protocol: Total RNA was extracted with the RNeasy Plus Mini Kit from Qiagen (Hilden, Germany) according to the manufacturer’s instructions. One microgram of RNA was reverse-transcribed using an iScript Reverse Transcription Supermix from Bio-Rad Laboratories (Hercules, CA, USA) to make single-stranded cDNA. The cDNAs were then mixed with Qi SYBR Green Supermix (Bio-Rad) for quantitative RT-PCR assay using a Bio-Rad I-cycler IQ quantitative thermocycler. All PCR samples were prepared in triplicate wells in a 96-well plate. After 40 cycles of PCR, melt curves were examined in order to ensure primer specificity. Fold changes in gene expression were calculated using the ΔΔCt method. Primers used for mouse were as follows: Oaz1 (5′-CCACTGCTTCGCCAGAGAG-3′) and (5′-CCCGGACCCAGGTTACTA-3′), Gli1 (5′- […]-3′ and 5′- GCT GATCCAGCCTAAGGTTCTC-3′), Ptch1 (5′-CCATCGGCGACAAGAACC-3′ and 5′-[…]-3′), Thbs1 (5′-[…]-3′ and 5′-CGGGGATCAGGTTGGCATT-3′), Cryab (5′-[…]-3′ and 5′-[…]-3′), Egr2 (5′-[…]-3′ and 5′-[…]-3′), CTGF (5′-GGGCCTCTTCTGCGATTTC-3′ and 5′-[…]-3′).
Primers used for human were as follows: GAPDH (5′- […]-3′ and 5′- […]-3′), SHH (5′- CGGAGCGAGGAAGGGAAAG-3′) and (5′- […]-3′), GLI1 (5′- GAAGCCGAGCCGAGTATC-3′ and 5′-[…]-3′), GLI2 (5′-[…]-3′ and 5′-[…]-3′), Fn-EDA (5′- […]-3′ and 5′- […]-3′), E-Cadherin (5′- […]-3′ and 5′- TCCCAGGCGTAGACCAAGA-3′), SNAIL (5′- […]-3′ and 5′- […]-3′), N-Cadherin (5′- […]-3′ and 5′- […]-3′), Vimentin (5′- […]-3′ and 5′- […]-3′), ZO-1 (5′- […]-3′ and 5′- […]-3′), MMP2 (5′- […]-3′ and 5′- […]-3′), MMP9 (5′-[…]-3′ and 5′-[…]).
Figure 8 Inhibition of TGFβ-induced EMT in NSCLC cells. (a) A549 cells were treated with TGFβ in the absence or presence of Oxy210 in RPMI 1640 containing 2% FBS for 5 days. The cells were washed with PBS and then fixed with 2% formaldehyde in PBS at room temperature for 15 min. Formaldehyde was then removed, cells washed with PBS and stained with 4% Trypan Blue for 5 min. Phase contrast images were obtained using a 20X objective lens. A549 (b,c) and H2030 (d) cells were treated in RPMI 1640 containing 0.1% FBS overnight and then pretreated for 2 h with Oxy210 in RPMI 1640 containing 0.1% FBS. Next, cells were treated with TGFβ in the absence or presence of Oxy210. After 48 h, RNA was extracted and analyzed by Q-RT-PCR for the expression of the genes as indicated and normalized to GAPDH expression. Data from a representative experiment are reported as the mean of triplicate determinations ± SD (** p < 0.01 vs. TGFβ treated cells; ## p < 0.01 vs. control).

[4] = test system: H2030 cells; experiment: TGFβ-induced EMT gene expression in H2030 cells; type: cell-based, human; conditions: 48 h
Protocol: Total RNA was extracted with the RNeasy Plus Mini Kit from Qiagen (Hilden, Germany) according to the manufacturer’s instructions. One microgram of RNA was reverse-transcribed using an iScript Reverse Transcription Supermix from Bio-Rad Laboratories (Hercules, CA, USA) to make single-stranded cDNA. The cDNAs were then mixed with Qi SYBR Green Supermix (Bio-Rad) for quantitative RT-PCR assay using a Bio-Rad I-cycler IQ quantitative thermocycler. All PCR samples were prepared in triplicate wells in a 96-well plate. After 40 cycles of PCR, melt curves were examined in order to ensure primer specificity. Fold changes in gene expression were calculated using the ΔΔCt method. Primers used for mouse were as follows: Oaz1 (5′-CCACTGCTTCGCCAGAGAG-3′) and (5′-CCCGGACCCAGGTTACTA-3′), Gli1 (5′- […]-3′ and 5′- GCT GATCCAGCCTAAGGTTCTC-3′), Ptch1 (5′-CCATCGGCGACAAGAACC-3′ and 5′-[…]-3′), Thbs1 (5′-[…]-3′ and 5′-CGGGGATCAGGTTGGCATT-3′), Cryab (5′-[…]-3′ and 5′-[…]-3′), Egr2 (5′-[…]-3′ and 5′-[…]-3′), CTGF (5′-GGGCCTCTTCTGCGATTTC-3′ and 5′-[…]-3′). […]
Figure 8 Inhibition of TGFβ-induced EMT in NSCLC cells. […] After 48 h, RNA was extracted and analyzed by Q-RT-PCR for the expression of the genes as indicated and normalized to GAPDH expression. […]

[5] = test system: A549 cells; experiment: Matrigel invasion assay; type: cell-based, human; conditions: Matrigel chambers, 24 h
Protocol: Invasion assays were performed using 24-well Matrigel invasion chambers (Corning, Corning, NY, USA), with the protocol provided by the manufacturer. A549 cells in 6-well plate starved in RPMI 1640 containing 0.1% FBS for 24 h were pre-treated with Oxy210 or DMSO for 2 h. 2 × 10^4 cells were seeded in each of the upper chambers containing RPMI 1640 supplemented with 0.1% FBS and the test agents. Each of the lower chambers contained RPMI 1640 supplemented with 5% FBS and the corresponding test agents. The cells were cultured for 24 h before assessment of cell invasion. Non-invaded cells in the upper surface of the membrane were removed using a cotton swab and the invaded cells in the lower surface were fixed and stained with 100% methanol and 0.4% trypan blue, respectively. The invaded cells were imaged and counted under the microscope at 40X total magnification.
Figure 9 Inhibition of TGFβ-induced invasive activity of A549 cells. In vitro invasion assays were performed using chambers with matrigel-coated membrane as described in the Materials and Methods section. (a) Images of invaded cells on the membranes. (b) Quantitative analysis of invasion of A549 cells induced by TGFβ in the absence or presence of Oxy210. Data from a representative experiment are reported as the mean of triplicate determinations ± SD (** p < 0.01 vs. TGFβ treated cells; ## p < 0.01 vs. control).

[6] = Metabolic stability in mouse liver microsomes; type: in vitro ADME
[7] = test system: Liver X Receptor (LXR); experiment: LXR activity, summary of drug-like properties; type: cell-based
[8] = pKa; type: physicochemical; conditions: printed in Figure 1, method not stated
From the text: Figure 1 The molecular structures of Cholesterol, Oxy8, Oxy133, Oxy16, Oxy186 and Oxy210. TEXT PRINTED IN THE PICTURE: Oxy210: pKa ~ 5

SMILES: C[C@]12CC[C@H]3[C@@H](CC=C4C[C@@H](O)CC[C@@]43C)[C@@H]1CC[C@@H]2[C@](C)(O)CCc1cccnc1 [Oxy210, (3S,8S,9S,10R,13S,14S,17S)-17-((R)-2-hydroxy-4-(pyridin-3-yl)butan-2-yl)-10,13-dimethyl-2,3,4,7,8,9,10,11,12,13,14,15,16,17-tetradecahydro-1H-cyclopenta[a]phenanthren-3-ol]
- TGFβ induced activity of SBE-luciferase reporter [1]: significantly inhibited
- mRNA expression of GLI1 and GLI2 [2]: significantly inhibited
- TGFβ-induced EMT morphology changes [3]: reversed
- expression of E-Cad downregulated by TGFβ ([3]; 48 h): partially rescued
- expression of mesenchymal genes upregulated by TGFβ (SNAIL, ZO-1, Fn-EDA, N-Cad) ([3]; 48 h): inhibited the expression of mesenchymal genes
- mRNA expression of MMP2 and MMP9 induced by TGFβ ([3]; 48 h): inhibited the mRNA expression
- genes associated with TGFβ-induced EMT [4]: complete suppression
- TGFβ-induced invasive activity [5]: inhibited this invasive activity in a dose dependent manner
- remaining at 1 h ([6]; read-out: MLM, % Remaining after 60 min): 61%
- half-life ([6]; read-out: MLM, Half-Life): 1.4 h
- LXR activity [7]: devoid of undesirable Liver X Receptor (LXR) activity
- pKa [8]: ~5
